Experimental data published in patent US9120776B2, “Condensed heterocyclic compound” (Takeda Pharmaceutical Company Limited, priority 2011, dated 2015).
Read-outs that look alike come from different tables or passages of the source.

What was measured:
RORγt [1] = target: T1, RORγt (Homo sapiens, UniProt P51449); experiment: Jurkat Reporter Test (human IL-17 ROR response element luciferase, RORγt vector); type: cell-based; conditions: read-out: inhibitory rate (%)
T1 sequence (P51449 1-497 isoform P51449-2): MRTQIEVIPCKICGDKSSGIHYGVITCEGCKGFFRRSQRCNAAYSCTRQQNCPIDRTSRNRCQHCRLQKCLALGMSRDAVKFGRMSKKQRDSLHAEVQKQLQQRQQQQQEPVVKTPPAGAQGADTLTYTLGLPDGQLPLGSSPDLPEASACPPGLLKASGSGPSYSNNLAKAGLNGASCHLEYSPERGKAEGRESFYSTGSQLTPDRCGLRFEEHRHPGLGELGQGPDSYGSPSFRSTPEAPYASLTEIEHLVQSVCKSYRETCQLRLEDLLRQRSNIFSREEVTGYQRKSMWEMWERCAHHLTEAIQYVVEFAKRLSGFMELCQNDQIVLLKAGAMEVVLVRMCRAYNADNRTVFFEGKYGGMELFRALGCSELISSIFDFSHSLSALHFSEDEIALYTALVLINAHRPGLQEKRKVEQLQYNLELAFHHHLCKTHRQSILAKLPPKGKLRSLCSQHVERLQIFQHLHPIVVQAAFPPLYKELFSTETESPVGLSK
Method: The Jurkat cells used for the reporter test were cultured in a culture medium (RPMI (Invitrogen), 10% FCS (AusGeneX), 100 U/mL penicillin, 100 μg/mL streptomycin). On the day of the test, 4×10^7 cells were recovered by a centrifugal operation (1000 rpm, 5 min.) and suspended in PBS (phosphate buffered saline) (Invitrogen). Thereafter, the cells were recovered again by a centrifugal operation, and suspended in 2 mL of R buffer (NEON transfection kit, Invitrogen). […] Gene transfer was performed by Electroporation apparatus (NEON, Invitrogen) under the conditions of pulse voltage 1350 V, interval 10 milliseconds, number of times 3. The cells after gene transfer were suspended in 40 mL of a reaction medium (RPMI, 10% Lipid reduced FCS (HyClone), 10 mM HEPES (pH 7.5), 100 U/mL penicillin, 100 μg/mL streptomycin, 5 μM lovastatin), and plated in a 96 well plate by 90 μL each. A test compound diluted with the reaction medium was added by 10 μL each, and the cells were cultured overnight in an incubator. Bright-Glo (Promega) was added by 100 μL each, and the mixture was stirred at room temperature for 10 min, and the luminescence level was measured by Envision (PerkinElmer).

RORγt [2] = target: T1, RORγt; experiment: RORγt Binding Test (TR-FRET, fluorescent-labeled cholesterol); parameters: histidine tag (implied by the Histidine Detection Kit); conditions: binding inhibitory rate of fluorescent-labeled cholesterol to RORγt at test compound 1 μM
Method: The binding activity of the test compound to RORγt was measured by a time resolved fluorescence resonance energy transfer method (TR-FRET) utilizing histidine-tagged RORγt, fluorescent-labeled cholesterol (BODIPY-cholesterol, AVIVA) and terbium-labeled anti-histidine tag antibody (Invitrogen). First, a test compound diluted with an assay buffer (20 mM Tris-HCl (pH 7.5), 100 mM NaCl, 1 mM DTT, 0.1% BSA) was added to a 384 well plate by 3 μL each. Then, RORγt diluted with an assay buffer to 240 nM was added by 3 μL each, after which fluorescent-labeled cholesterol diluted with the assay buffer to 12 μM was added by 3 μL each, and the mixture was stood at room temperature for 20 min. Thereafter, a terbium-labeled anti-histidine tag antibody diluted with the assay buffer to 8 nM was added by 3 μL each. The mixture was stood at room temperature for 20 min, and fluorescence intensity (excitation wavelength 320 nm, fluorescence wavelength 520 nm, delay time 100 microseconds) was measured by Envision (PerkinElmer).

RORγt [3] = target: T1, RORγt; experiment: Cofactor Recruitment Test (Alpha Screen, biotinylated SRC-1 peptide); type: biochemical; parameters: histidine tag (implied by the Histidine Detection Kit); conditions: signal value inhibitory rate at test compound 1 μM
Method: Cofactor recruitment test was performed by Alpha Screen (Histidine Detection Kit, PerkinElmer) method. First, a test compound diluted with an assay buffer (50 mM Tris-HCl (pH 7.5), 50 mM KCl, 1 mM DTT, 0.1% BSA) was added to a 384 well plate by 5 μL each. […] The mixture was stood in a dark place for 1 hr, and the signal value was measured by Envision (PerkinElmer).

Th17 cells = experiment: Mouse Th17 Cell Differentiation Test (IL-17A in culture supernatant, ELISA); type: cell-based; conditions: inhibitory rate at 10 μM of test compound, mouse CD4 positive naive T cells, 4 days, IL-17A by ELISA; for inhibition at 10 µM: 96 h
Method: CD4 positive naive T cells were collected from the spleen cells of BALB/c mice (female, 8-11w, Charles River Laboratories Japan, Inc.) using CD4+CD62L+ T Cell Isolation kit II (Miltenyi Biotec). The CD4 positive naive T cells in a 96 well plate (3×10^5 cells/well) were stimulated (37° C. for culture) with anti-mouse CD3ε antibody (Bio X cell) (10 μg/mL, solid phase) and anti-CD28 antibody (Bio X cell) (5 μg/mL) for 4 days in the presence of anti-IFN-γ antibody (BioLegend), anti-IL-4 antibody (BioLegend), anti-IL-2 antibody (BioLegend), IL-6, TGF-β and IL-23 to differentiate into Th17 cells. The compound was dissolved in DMSO and then added thereto. The cells were cultured under these conditions for 4 days, and differentiation of the Th17 cells was evaluated by using the concentration of IL-17A, which was measured by ELISA, in the culture supernatant obtained by centrifugation.

human PBMC = experiment: IL17 Production Test in Human PBMC; type: cell-based; conditions: 72 h, inhibitory rate at 10 μM of test compound, anti-CD3/CD28 stimulation, 3 days, IL-17A by ELISA
Method: Peripheral blood mononuclear cells (PBMC) collected from human peripheral blood by a density gradient centrifugation method were stimulated by Dynabeads (registered trade mark; anti-CD3/CD28 antibody) and cultured at 37° C. for 3 days. The compound was dissolved in DMSO and then added thereto. After culture for 3 days under such conditions, the concentration of IL-17A in the culture supernatant obtained by centrifugation was measured by ELISA to evaluate the effect of the compound on IL-17 production.

[4] = luminescence level inhibitory rate at test compound 3 μM, Jurkat cells

SMILES | inhibition at 1 µM (RORγt [2]) | inhibition at 1 µM (RORγt [3]) | inhibition at 3 µM (RORγt [1]; [4]) | inhibition at 3 µM (RORγt [1]; Jurkat) | inhibition at 10 µM (Th17 cells) | inhibition at 10 µM (Th17 cells; Mus musculus, CD4 positive) | inhibitory rate (%) (Th17 cells; 10 µM) | inhibition at 10 µM (human PBMC)
CCn1c2ccccc2c2cc(NC(=O)CCC(C)C(=O)Nc3ccc(C#N)c(Cl)c3)ccc21 (stereo not shown) [Example 43, N^1-(3-chloro-4-cyanophenyl)-N^5-(9-ethyl-9H-carbazol-3-yl)-2-methylpentanediamide] | 100% | 102% |  | 104% |  |  |  | 
CCn1c2ccccc2c2cc(NC(=O)CC(CC(=O)Nc3ccc(C#N)c(Cl)c3)c3ccccc3)ccc21 (stereo not shown) [Example 39, N-(3-chloro-4-cyanophenyl)-N′-(9-ethyl-9H-carbazol-3-yl)-3-phenylpentanediamide] | 91.4% | 102% |  | 93.2% |  |  |  | 
CCn1c2ccccc2c2cc(NC(=O)CC(C)CC(=O)Nc3ccc(C#N)c(Cl)c3)ccc21 (stereo not shown) [Example 25, N-(3-chloro-4-cyanophenyl)-N′-(9-ethyl-9H-carbazol-3-yl)-3-methylpentanediamide] |  |  |  |  |  | 96.1% |  | 
CCn1c2ccccc2c2cc(NC(=O)C3CCC3C(=O)Nc3ccc(C#N)c(Cl)c3)ccc21 (stereo not shown) [Example 40, N-(3-chloro-4-cyanophenyl)-N′-(9-ethyl-9H-carbazol-3-yl)cyclobutane-1,2-dicarboxamide] | 96.3% | 102% |  | 99.3% |  |  |  | 
CCn1c2ccccc2c2cc(NC(=O)CC(C)CC(=O)Nc3ccc(C#N)c(Cl)c3)ccc21 (stereo not shown) [Example 26, N-(3-chloro-4-cyanophenyl)-N′-(9-ethyl-9H-carbazol-3-yl)-3-methylpentanediamide] |  |  |  |  |  |  | 96.1% | 
CCn1c2ccccc2c2cc(NC(=O)CC(C)CC(=O)Nc3ccc(C#N)cc3)ccc21 (stereo not shown) [Step 1 of Example 15, N^1-(4-cyanophenyl)-N^5-(9-ethyl-9H-carbazol-3-yl)-3-methylpentanediamide] |  |  |  |  | 93.2% |  |  | 
CCn1c2ccccc2c2cc(C(=O)NCC(C)CC(=O)Nc3ccc(C#N)c(Cl)c3)ccc21 (stereo not shown) [Example 48, N-{4-[(3-chloro-4-cyanophenyl)amino]-2-methyl-4-oxobutyl}-9-ethyl-9H-carbazole-3-carboxamide] | 104% | 106% |  | 115% |  | 96.9% |  | 97.6%
CCn1c2ccccc2c2cc(NC(=O)C(C)CCC(=O)Nc3ccc(C#N)c(Cl)c3)ccc21 (stereo not shown) [Example 42, N^5-(3-chloro-4-cyanophenyl)-N^1-(9-ethyl-9H-carbazol-3-yl)-2-methylpentanediamide] | 101% | 101% |  | 104% |  |  |  | 

Second part, led by results:

inhibition at 1 µM (RORγt [2]) | inhibition at 1 µM (RORγt [3]) | inhibition at 3 µM (RORγt [1]; [4]) | SMILES | inhibition at 3 µM (RORγt [1]; Jurkat) | inhibition at 10 µM (Th17 cells) | inhibition at 10 µM (Th17 cells; Mus musculus, CD4 positive) | inhibitory rate (%) (Th17 cells; 10 µM) | inhibition at 10 µM (human PBMC)
93.9% | 104% | 109% | CCn1c2ccccc2c2cc(NC(=O)CC(C)CC(=O)Nc3ccc(C#N)nc3)ccc21 (stereo not shown) [Example 49, N-(6-cyanopyridin-3-yl)-N′-(9-ethyl-9H-carbazol-3-yl)-3-methylpentanediamide] |  |  |  |  | 
62.9% | 98.7% | 77.8% | CCn1c2ccccc2c2cc(NC(=O)CC(C)CCOc3ccc(C#N)c(C)c3)ccc21 (stereo not shown) [Example 44, 5-(4-cyano-3-methylphenoxy)-N-(9-ethyl-9H-carbazol-3-yl)-3-methylpentanamide] |  |  |  |  | 
93.4% | 100% | 96.4% | CCn1c2ccccc2c2cc(NC(=O)CC(C)CC(=O)Nc3ccc(C#N)c(OC)c3)ccc21 (stereo not shown) [Example 41, N-(4-cyano-3-methoxyphenyl)-N′-(9-ethyl-9H-carbazol-3-yl)-3-methylpentanediamide] |  |  |  |  | 
98.9% | 101% | 100% | CCn1c2ccccc2c2cc(NC(=O)CSCC(=O)Nc3ccc(C#N)cc3)ccc21 [Example 24, 2-({2-[(4-cyanophenyl)amino]-2-oxoethyl}sulfanyl)-N-(9-ethyl-9H-carbazol-3-yl)acetamide] |  | 96% |  |  | 
82.2% | 104% | 102% | CCn1c2ccccc2c2cc(NC(=O)CC(C)CCOc3ccc(C#N)c(C#N)c3)ccc21 (stereo not shown) [Example 55, 5-(3,4-dicyanophenoxy)-N-(9-ethyl-9H-carbazol-3-yl)-3-methylpentanamide] |  |  |  |  | 
88.8% | 103% | 110% | CCn1c2ccccc2c2cc(NC(=O)CC(C)CC(=O)Nc3ccc(C#N)cn3)ccc21 (stereo not shown) [Example 50, N-(5-cyanopyridin-2-yl)-N′-(9-ethyl-9H-carbazol-3-yl)-3-methylpentanediamide] |  |  |  |  | 
91.9% | 102% | 99.4% | CCn1c2ccccc2c2cc(NC(=O)CC(C)CCOc3ccc(C#N)c(Cl)c3)ccc21 (stereo not shown) [Example 38, 5-(3-chloro-4-cyanophenoxy)-N-(9-ethyl-9H-carbazol-3-yl)-3-methylpentanamide] |  |  |  |  | 
94.6% | 103% | 82.7% | CCn1c2ccccc2c2cc(NC(=O)C[S+]([O-])CC(=O)Nc3ccc(C#N)cc3)ccc21 (stereo not shown) [Example 34, 2-((2-((4-cyanophenyl)amino)-2-oxoethyl)sulfinyl)-N-(9-ethyl-9H-carbazol-3-yl)acetamide] |  | 96.3% |  |  | 
